12 compounds from PubChem BioAssay (NCI) can be followed below.

Holding throughout (assay): NCI tumour cell line growth inhibition, 48 h
Assay [1] concerns SF-268 CNS.
In assay [2] the test system is SNB-75 CNS.
The subject of assay [3] is DU-145 prostate.
Assay [4] has as its system HS 578T breast.
Assay [5] concerns T-47D breast.
The subject of assay [6] is A549 NSCLC.
For assay [7], the system named is M14 melanoma.
For assay [8], the system named is HCT-116 colon.
Assay [9] deals with MOLT-4 leukemia.
Assay [10] has as its system MDA-MB-231 breast.

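Each compound was tested at five concentrations against cells in 96-well plates for 48 hours. GI50 is the concentration that inhibits growth by half. The concentration for full growth arrest is given as TGI.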 Some results are limits rather than exact numbers.

In the case of `N#CCCNc1nonc1-c1nc2ccccc2n1CC(=O)c1ccc(N)cc1`, the GI50 in [1] is 0.023 µM; in [2] it was 0.0232 µM; in assay [3], 0.0288 µM; in assay [4], 0.0192 µM; in assay [5], 29 µM; in [6], 0.0345 µM. For the same compound, the GI50 is 0.0249 µM in [7], 0.0285 µM in assay [8] and 0.0301 µM in [9]. Further, the TGI was greater than 82 µM in assay [1]; greater than 73 µM in [2]; 0.0984 µM in assay [3]; greater than 100 µM in [4]; greater than 100 µM in assay [5]; greater than 100 µM in assay [6]. This compound had a TGI in assay [7] greater than 100 µM.

`CN(C)CCC(N)(P(=O)([O-])[O-])P(=O)([O-])[O-].N.N.[Pt+2]`: the GI50 in assay [1], in assay [2], in [6], in assay [7], in [8] and in assay [9] was greater than 100 µM each time. Besides, the TGI in assay [1], in assay [2], in [6], in assay [7], in assay [8] and in [9] was greater than 100 µM each time.

`CCN(CC)CC(=O)NC1c2ccccc2Oc2ccccc21`: the TGI in assay [1], in assay [2], in assay [6], in [7], in assay [8] and in assay [9] was greater than 100 µM each time.

Regarding `O=C1C2C3CC4C5C3C1C5C1(SCCS1)C42` (stereo not given), the TGI in assay [1], in [2], in assay [6], in assay [7], in assay [8] and in [9] was greater than 100 µM in each case.

Take `COC(=O)[C@@H](C)C[C@H](Cc1ccccc1)NC(=O)c1nc([C@@H](C[C@H](C(C)C)N(C)C(=O)[C@@H](NC(=O)[C@H]2C[C@H](O)CCN2C)C(C)C)OC(C)=O)sc1C(C)C`: the GI50 was 0.00957 µM in assay [1]; 0.00462 µM in assay [2]; 0.00395 µM in assay [3]; 0.0067 µM in assay [10]; 0.0122 µM in assay [4]; 0.0519 µM in assay [6]. The GI50 in [7] is 0.0149 µM; in [8] it was 0.004 µM; in [9], 0.0117 µM. In addition, the TGI in [1] was greater than 11.1 µM; in [2], 3.85 µM; in assay [10] it was 0.458 µM; in assay [4], greater than 8.26 µM; in [6], greater than 11.1 µM; in assay [7], 1.24 µM. Moreover, the TGI in assay [8] was 3.88 µM; in assay [9], greater than 11.1 µM.

In the case of `COC(=O)C(=O)C(C#N)c1nc2ccccc2s1` (stereo not given), the TGI in assay [1], in assay [2], in assay [6], in assay [7], in assay [8] and in assay [9] was greater than 100 µM in each case.

On to `O=C([CH-]C(=O)c1ccccc1)c1ccccc1.O=C([CH-]C(=O)c1ccccc1)c1ccccc1.O=C([CH-]C(=O)c1ccccc1)c1ccccc1.[Ga+3]`, for which the GI50 was 35.1 µM in assay [1]; 64.7 µM in assay [2]; 39.6 µM in [6]; 37.6 µM in assay [7]; 23.4 µM in assay [8]; 13.3 µM in assay [9]. The TGI in assay [1], in assay [2], in assay [6], in assay [7], in assay [8] and in [9] was greater than 100 µM throughout.

Regarding `COc1ccc2c(c1)[C@@H](NC(C)=O)CCc1cc(OC)c(OC)c(OC)c1-2`, the TGI was greater than 90.4 µM in assay [1]; 12.9 µM in assay [2]; 0.0433 µM in assay [3]; greater than 100 µM in assay [4]; greater than 100 µM in assay [5]; greater than 100 µM in [6]. Further, the TGI was greater than 22.6 µM in assay [7], 0.528 µM in assay [8] and greater than 42.5 µM in assay [9].

Turning to `CC(=O)C1(O)CC2(c3ccccc3)C(=O)C1(c1ccccc1)C(c1ccccc1)=C2c1ccccc1` (stereo not given), the TGI in [1], in assay [2], in [6], in assay [7], in [8] and in assay [9] was greater than 100 µM throughout.

Turning to `COc1nc(NC2OC(COC(C)=O)C(OC(C)=O)C(OC(C)=O)C2OC(C)=O)c(N=CC=Nc2c(NC3OC(COC(C)=O)C(OC(C)=O)C(OC(C)=O)C3OC(C)=O)nc(OC)[nH]c2=O)c(=O)[nH]1` (stereo not given), the TGI in [1], in assay [2], in [6], in [7], in [8] and in assay [9] was greater than 100 µM each time.

As for `O=C(CCc1nnc2s/c(=C\c3ccc([N+](=O)[O-])cc3)c(=O)n12)Nc1ccc(Cl)c(Cl)c1`, the TGI in assay [1] was 35.7 µM; in [2], 28 µM; in assay [6], greater than 100 µM; in assay [7] it was 45 µM; in assay [8] it was greater than 100 µM; in assay [9], 51.5 µM.

On to `O=C1NN2CC(c3ccccc3)=NN=C2c2ccccc21`, for which the GI50 is 26.8 µM in assay [1]; greater than 100 µM in assay [2]; 31.3 µM in assay [3]; 26.4 µM in [10]; 68 µM in assay [4]; 28.6 µM in assay [6]. The GI50 in assay [7] is 21.9 µM; in [8] it was 17.4 µM; in assay [9], 11.1 µM. Moreover, the TGI was 82.3 µM in [1]; greater than 100 µM in [2]; 99 µM in assay [3]; 79.1 µM in assay [10]; greater than 100 µM in assay [4]; 70.8 µM in assay [6]. The TGI in [7] was 48.9 µM; in assay [8], 36.7 µM; in assay [9] it was greater than 100 µM.
